# Measured values: PubChem BioAssay (NCI)
#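 Step 1: Grow cells in 96-well plates. Step 2: Expose to compound for 48 hours at 5 concentrations. Step 3: Interpolate endpoints linearly; if unreached, use highest concentration. Here, GI50 denotes the concentration required for 50% inhibition of growth. TGI: total growth inhibition.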
# What was measured:
# Assay in all cases: growth of human tumour cells (NCI), 48 h
# [1] = test system: COLO 205 colon
# [2] = test system: A549 NSCLC
# [3] = test system: HCT-15 colon
# [4] = test system: UO-31 renal
# [5] = test system: LOX IMVI melanoma
# [6] = test system: HL-60(TB) leukemia
# [7] = test system: T-47D breast
# [8] = test system: HOP-62 NSCLC
# [9] = test system: SK-MEL-5 melanoma
# [10] = test system: U251 CNS
# [11] = test system: DU-145 prostate
# [12] = test system: SNB-19 CNS
# [13] = test system: SK-OV-3 ovarian
# [14] = test system: K-562 leukemia
# [15] = test system: CAKI-1 renal
# [16] = test system: SK-MEL-2 melanoma
# [17] = test system: HS 578T breast
# [18] = test system: SF-539 CNS
# [19] = test system: HOP-92 NSCLC
# [20] = test system: OVCAR-3 ovarian
# [21] = test system: SNB-75 CNS
# [22] = test system: UACC-257 melanoma
# [23] = test system: NCI-H522 lung
# [24] = test system: SN12C renal
# [25] = test system: MDA-MB-231 breast
# [26] = test system: SK-MEL-28 melanoma
# [27] = test system: IGROV1 ovarian
# [28] = test system: UACC-62 melanoma
# [29] = test system: A498 renal
# [30] = test system: RXF 393 renal
# [31] = test system: 786-0 renal
# [32] = test system: TK-10 renal
# [33] = test system: PC-3 prostate
# [34] = test system: CCRF-CEM leukemia
# [35] = test system: OVCAR-4 ovarian
# [36] = test system: NCI-H460 lung
# [37] = test system: OVCAR-5 ovarian
# [38] = test system: KM12 colon
# [39] = test system: HCT-116 colon
# [40] = test system: MALME-3M melanoma
# [41] = test system: BT-549 breast
# [42] = test system: NCI-H23 lung
# [43] = test system: SW-620 colon
# [44] = test system: MDA-MB-435
# [45] = test system: NCI-H226 lung
# [46] = test system: SF-295 CNS
# [47] = test system: OVCAR-8 ovarian
# [48] = test system: HCC-2998 colon
# [49] = test system: NCI/ADR-RES ovarian
# [50] = test system: ACHN renal
# [51] = test system: MOLT-4 leukemia
# [52] = test system: M14 melanoma
# [53] = test system: EKVX NSCLC
# [54] = test system: MCF7 breast
# [55] = test system: SF-268 CNS
smiles,measurement,setting,value
CCOC(=O)N1CCN(S(=O)(=O)c2oc(-c3ccc(Cl)cc3)nc2C#N)CC1,GI50,[1],2050 nM
same,TGI,[1],4.25 µM
same,GI50,[2],24.9 µM
same,TGI,[2],> 100 µM
same,GI50,[3],1490 nM
same,TGI,[3],3.3 µM
same,GI50,[4],1540 nM
same,TGI,[4],2880 nM
same,GI50,[5],573 nM
same,TGI,[5],2020 nM
same,GI50,[6],2140 nM
same,TGI,[6],7.15 µM
same,GI50,[7],2290 nM
same,TGI,[7],5.94 µM
same,GI50,[8],13.5 µM
same,TGI,[8],> 100 µM
same,GI50,[9],2510 nM
same,TGI,[9],6.46 µM
same,GI50,[10],5.49 µM
same,TGI,[10],19.6 µM
same,GI50,[11],2480 nM
same,TGI,[11],6.31 µM
same,GI50,[12],14.6 µM
same,TGI,[12],50.7 µM
same,GI50,[13],74.1 µM
same,TGI,[13],> 100 µM
same,GI50,[14],1590 nM
same,TGI,[14],> 100 µM
same,GI50,[15],1750 nM
same,TGI,[15],3.14 µM
same,GI50,[16],3.96 µM
same,TGI,[16],13.8 µM
same,GI50,[17],4.2 µM
same,TGI,[17],23.8 µM
same,GI50,[18],3.34 µM
same,TGI,[18],10.5 µM
same,GI50,[19],1800 nM
same,TGI,[19],3.75 µM
same,GI50,[20],1790 nM
same,TGI,[20],3.38 µM
same,GI50,[21],11.4 µM
same,TGI,[21],> 100 µM
same,GI50,[22],2370 nM
same,TGI,[22],7.71 µM
same,GI50,[23],956 nM
same,TGI,[23],3.07 µM
same,GI50,[24],1660 nM
same,TGI,[24],3.23 µM
same,GI50,[25],1940 nM
same,TGI,[25],4.24 µM
same,GI50,[26],2120 nM
same,TGI,[26],4.23 µM
same,GI50,[27],1750 nM
same,TGI,[27],3.47 µM
same,GI50,[28],3.07 µM
same,TGI,[28],12.7 µM
same,GI50,[29],17.2 µM
same,TGI,[29],> 100 µM
same,GI50,[30],1820 nM
same,TGI,[30],3.25 µM
same,GI50,[31],1650 nM
same,TGI,[31],3.24 µM
same,GI50,[32],1800 nM
same,TGI,[32],3.29 µM
same,GI50,[33],2240 nM
same,TGI,[33],5.77 µM
same,GI50,[34],360 nM
same,TGI,[34],5.13 µM
same,GI50,[35],2360 nM
same,TGI,[35],5.5 µM
same,GI50,[36],15 µM
same,TGI,[36],46 µM
same,GI50,[37],3.92 µM
same,TGI,[37],13.3 µM
same,GI50,[38],10.5 µM
same,TGI,[38],35.6 µM
same,GI50,[39],1740 nM
same,TGI,[39],3.7 µM
same,GI50,[40],1670 nM
same,TGI,[40],3.09 µM
same,GI50,[41],2220 nM
same,TGI,[41],5.6 µM
same,GI50,[42],3.93 µM
same,TGI,[42],15.1 µM
same,GI50,[43],1690 nM
same,TGI,[43],3.75 µM
same,GI50,[44],2320 nM
same,TGI,[44],5.24 µM
same,GI50,[45],64.3 µM
same,TGI,[45],> 100 µM
same,GI50,[46],28.2 µM
same,TGI,[46],> 100 µM
same,GI50,[47],3.23 µM
same,TGI,[47],23.3 µM
same,GI50,[48],3.15 µM
same,TGI,[48],10.8 µM
same,GI50,[49],12.2 µM
same,TGI,[49],47.6 µM
same,GI50,[50],1760 nM
same,TGI,[50],3.15 µM
same,GI50,[51],739 nM
same,TGI,[51],4.35 µM
same,GI50,[52],1590 nM
same,TGI,[52],3.67 µM
same,GI50,[53],9.71 µM
same,TGI,[53],27.2 µM
same,GI50,[54],1750 nM
same,TGI,[54],4.21 µM
same,GI50,[55],2560 nM
same,TGI,[55],6.75 µM
